# Reference: patent US20140163099A1, “ANTIMICROBIAL COMPOSITION” (TAKASAGO INTERNATIONAL CORPORATION, priority 2011, published 2014)
# Tests used:
# Format in all cases: cell-based
# [1] = test system: Staphylococcus aureus (NBRC12732); assay: Growth inhibition activity (MIC, agar) against aerobic bacteria; settings: strain NBRC12732; Mueller Hinton Agar, 37 degrees C. overnight
# Experimental: (§1) In the present invention, the growth inhibition activity, which is an indicator of the antimicrobial activity, is evaluated by determining the Minimum Inhibitory Concentration (MIC) with an agar or liquid medium.
# (§2) In the test for the growth inhibition activity, the following strains were used as skin-related bacteria: • Staphylococcus epidermidis: Staphylococcus epidermidis (JCM2414T and ATCC 12228) • Staphylococcus aureus: Staphylococcus aureus (NBRC12732 and JCM2151) • Skin indigenous bacteria which introduce a superficial infection: Corynebacterium minutissimum (NBRC15361T) • Armpit odor-causing bacteria: Corynebacterium xerosis (JCM1324)
# (§3) The test strains were cultured in the liquid medium which the Bioresource center recommends, and then the test strains were subcultured to a Mueller Hinton Broth (Difco) at 30 degrees C. The grown bacteria were diluted to 10^6 CFU/ml with saline to adjust the bacteria fluids for inoculation.
# (§4) Furthermore, in order to examine the growth inhibition activities against the bacteria by the above cooling agents, the concentration of the cooling agents: (3S)-CA20, (3R)-CA20, CA1, CA5, CA15, CA55 or CA MGH was diluted with ethanol to the required level of concentration for the determining the Minimum Inhibitory Concentration to produce the sample liquids.
# (§5) Next, 100 μL of each sample liquid was added to 10 mL of a Mueller Hinton Agar (Difco) agar medium solution in a soluble state, and each agar medium solution was poured into a petri dish and solidified to prepare test plates having several concentrations of the sample liquids (several concentrations of the above cooling agents). Subsequently, 5 μL of the above bacteria fluids for inoculation were stamped on the test plates, and then the test plates were cultured at 37 degrees C. overnight.
# (§6) In this way, the growth inhibition activities by (3S)-CA20, (3R)-CA20, CA1, CA5, CA15, CA55, CA MGH were examined. The minimum concentration of the cooling agent in which the growth of bacteria could not be confirmed was considered as the MIC (Minimum Inhibitory Concentration).
# (§7) The minimum concentration of the cooling agent in which the grown strain could not be confirmed was considered as the MIC (Minimum Inhibitory Concentration).
# [2] = test system: Staphylococcus epidermidis (JCM2414T); assay: as above; settings: strain JCM2414T; Mueller Hinton Agar, 37 degrees C. overnight
# Experimental: as §1, §2, §3, §4, §5, §6, §7
# [3] = test system: Corynebacterium xerosis (JCM1324); assay: as above; settings: strain JCM1324; Mueller Hinton Agar, 37 degrees C. overnight
# Experimental: as §1, §2, §3, §4, §5, §6, §7
# [4] = test system: Staphylococcus aureus (JCM2151); assay: as above; settings: strain JCM2151; Mueller Hinton Agar, 37 degrees C. overnight
# Experimental: as §1, §2, §3, §4, §5, §6, §7
# [5] = test system: Corynebacterium minutissimum (NBRC15361T); assay: as above; settings: strain NBRC15361T; Mueller Hinton Agar, 37 degrees C. overnight
# Experimental: as §1, §2, §3, §4, §5, §6, §7
# [6] = test system: Bacillus subtilis (NBRC3134); assay: as above; settings: strain NBRC3134; Mueller Hinton Agar, 37 degrees C. overnight
# Experimental: as §1
# (§8) Furthermore, the following bacteria were also used as other general aerobic bacteria: • Escherichia coli: Escherichia coli (NBRC3972) • Pseudomonas aeruginosa: Pseudomonas aeruginosa (NBRC13275) • Bacteria in intestines: Proteus vulgaris (NBRC3167) • Pneumobacillus: Klebsiella pneumoniae (NBRC13277) • Bacillus subtilis: Bacillus subtilis (NBRC3134)
# as §3, §4, §5, §6, §7
# [7] = test system: Klebsiella pneumoniae (NBRC13277); assay: as above; settings: strain NBRC13277; Mueller Hinton Agar, 37 degrees C. overnight
# Experimental: as §1, §8, §3, §4, §5, §6, §7
# [8] = test system: Escherichia coli (NBRC3972); assay: as above; settings: strain NBRC3972; Mueller Hinton Agar, 37 degrees C. overnight
# Experimental: as §1, §8, §3, §4, §5, §6, §7
# [9] = test system: Pseudomonas aeruginosa (NBRC13275); assay: as above; settings: strain NBRC13275; Mueller Hinton Agar, 37 degrees C. overnight
# Experimental: as §1, §8, §3, §4, §5, §6, §7
# [10] = test system: Proteus vulgaris (NBRC3167); assay: as above; settings: strain NBRC3167; Mueller Hinton Agar, 37 degrees C. overnight
# Experimental: as §1, §8, §3, §4, §5, §6, §7
# [11] = test system: Propionibacterium acnes (ATCC6919); assay: Growth inhibition activity (MIC, agar) against anaerobic bacteria; settings: strain ATCC6919; Trypticase Soy Broth agar, 37 degrees C. for 3 days
# Experimental: as §1
# (§9) In the test for growth inhibition activity, the following strains were used: • Acne bacteria: Propionibacterium acnes (JCM6473) and (ATCC6919) • Abscess bacteria: Bacteroides fragilis (GAI5560) • Cavity-causing bacteria: Streptococcus mutans (JCM5175), Actinomyces naeslundii (JCM8350) and Actinomyces viscosus (JCM8352) • Periodontal pathogen: Fusobacterium nucleatum (JCM6328), Porphyromonas gingivalis (JCM8525), Prevotella nigrescens (JCM6322)
# (§10) The test strains were cultured in a GAM medium (Nissui Pharmaceutical Co., LTD), a Schaedler Broth (BBL) or a Trypticase Soy Broth (BBL) liquid medium, and then the grown bacteria were diluted in saline to prepare turbidity 0.5 McFarland of the bacteria fluids for inoculation. The bacteria were cultured at 37 degrees C. for 3 days under an anaerobic condition by using AnaeroPack® from MGC.
# as §4, with “cooling agent,” for “cooling agents,”, “of concentrations” for “of concentration”
# (§11) Next, 100 μL of each sample liquid was added to 10 mL of a Trypticase Soy Broth agar medium solution in a soluble state, and each agar medium solution was poured into a petri dish and solidified, to prepare the test plates. Subsequently, 5 μL of above the bacteria fluids for inoculation were stamped on the test plates, and then the test plates were cultured at 37 degrees C. for 3 days.
# (§12) The minimum concentration of the cooling agent in which the growth of bacteria could not be confirmed was considered as the MIC (Minimum Inhibitory Concentration).
# as §12
# [12] = test system: Actinomyces viscosus (JCM8352); assay: as above; settings: strain JCM8352; Trypticase Soy Broth agar, 37 degrees C. for 3 days
# Experimental: as §1, §9, §10
# as §4, with “cooling agent,” for “cooling agents,”, “of concentrations” for “of concentration”
# as §11, §12, §12
# [13] = test system: Actinomyces naeslundii (JCM8350); assay: as above; settings: strain JCM8350; Trypticase Soy Broth agar, 37 degrees C. for 3 days
# Experimental: as §1, §9, §10
# as §4, with “cooling agent,” for “cooling agents,”, “of concentrations” for “of concentration”
# as §11, §12, §12
# [14] = test system: Streptococcus mutans (JCM5175); assay: as above; settings: strain JCM5175; Trypticase Soy Broth agar, 37 degrees C. for 3 days
# Experimental: as §1, §9, §10
# as §4, with “cooling agent,” for “cooling agents,”, “of concentrations” for “of concentration”
# as §11, §12, §12
# [15] = test system: Bacteroides fragilis (GAI5560); assay: as above; settings: strain GAI5560; Trypticase Soy Broth agar, 37 degrees C. for 3 days
# Experimental: as §1, §9, §10
# as §4, with “cooling agent,” for “cooling agents,”, “of concentrations” for “of concentration”
# as §11, §12, §12
# [16] = test system: Prevotella nigrescens (JCM6322); assay: as above; settings: strain JCM6322; Trypticase Soy Broth agar, 37 degrees C. for 3 days
# Experimental: as §1, §9, §10
# as §4, with “cooling agent,” for “cooling agents,”, “of concentrations” for “of concentration”
# as §11, §12, §12
# [17] = test system: Porphyromonas gingivalis (JCM8525); assay: as above; settings: strain JCM8525; Trypticase Soy Broth agar, 37 degrees C. for 3 days
# Experimental: as §1, §9, §10
# as §4, with “cooling agent,” for “cooling agents,”, “of concentrations” for “of concentration”
# as §11, §12, §12
# [18] = test system: Propionibacterium acnes (JCM6473); assay: as above; settings: strain JCM6473; Trypticase Soy Broth agar, 37 degrees C. for 3 days
# Experimental: as §1, §9, §10
# as §4, with “cooling agent,” for “cooling agents,”, “of concentrations” for “of concentration”
# as §11, §12, §12
Molecule,MIC (Minimum Inhibitory Concentration) [1],MIC (Minimum Inhibitory Concentration) [2],MIC (Minimum Inhibitory Concentration) [3],MIC (Minimum Inhibitory Concentration) [4],MIC (Minimum Inhibitory Concentration) [5],MIC (Minimum Inhibitory Concentration) [6],MIC (Minimum Inhibitory Concentration) [7],MIC (Minimum Inhibitory Concentration) [8],MIC (Minimum Inhibitory Concentration) [9],MIC (Minimum Inhibitory Concentration) [10],MIC (Minimum Inhibitory Concentration) [11],MIC (Minimum Inhibitory Concentration) [12],MIC (Minimum Inhibitory Concentration) [13],MIC (Minimum Inhibitory Concentration) [14],MIC (Minimum Inhibitory Concentration) [15],MIC (Minimum Inhibitory Concentration) [16],MIC (Minimum Inhibitory Concentration) [17],MIC (Minimum Inhibitory Concentration) [18]
"CC(O)CC(=O)OC1CC(C)CCC1C(C)C [(3R)-CA20, menthyl 3-hydroxybutanoate]",200 ppm,200 ppm,100 ppm,100 ppm,200 ppm,200 ppm,200 ppm,>1600 ppm,>1600 ppm,>1600 ppm,400 ppm,100 ppm,200 ppm,200 ppm,100 ppm,200 ppm,100 ppm,200 ppm
"N-alkyl-p-menthane-3-carboxamide [WS-3, reference compound]",>1600 ppm,>1600 ppm,>1600 ppm,>1600 ppm,>1600 ppm,>1600 ppm,>1600 ppm,>1600 ppm,>1600 ppm,>1600 ppm,>1600 ppm,>1600 ppm,>1600 ppm,>1600 ppm,>1600 ppm,>1600 ppm,200 ppm,>1600 ppm
